Laboratory results reported in patent publication US8691528B2, “Cell penetrating peptide” (Mitsubishi Tanabe Pharma Corporation, priority 2005, dated 2014).
“Also recorded” adds a separate entry of the source.

Columns and labels:
Assay type in all cases: cell-based
CHO cells [1] = test: Confocal microscopic analysis of translocation of fluorescence-labeled peptides into CHO cells; details: for intracellular translocation profile compared with PTD1: Example 5-2, 50 μM to 12.5 μM (FIG. 19: 25 μM)
Protocol: (§1) Three kinds of cells were used for incorporating the peptides: CHO cells (ATCC NO. CCL-61), HeLa cells, and Jurkat cells. 10^4 CHO cells and HeLa cells and 10^5 Jurkat cells were separately inoculated to a 96-well plate, and cultured for 2 or 3 days. Subsequently, when the cells became confluent, each peptide solution was added to each type of cell, and the cells were incubated for 1 hour. After each type of cell was washed with PBS three times, 100 μL of 0.25% trypsin-1 mM EDTA solution was added, and trypsinization was performed at room temperature for 5 minutes. After 400 μL of PBS (10% FCS) was added to neutralize the trypsin, the cells were washed with 1 mL of HBSS (Hanks' Balanced Salt Solution/produced by Invitrogen) three times. After the washing, the cells were suspended in 50 μL of HBSS and analyzed using a confocal microscope. Measurements and analysis were performed using a confocal differential interference laser microscope system (Bio-Rad, Radience2100/Green He-Ne, 488 nm, microscope: Nikon, ECLIPSE E600).
Furthermore, CHO cells were inoculated to a slide chamber (produced by Nunc), 25 μM of each of the KSH1 peptide and positive control was added to the CHO cells, and the intracellular transferability thereof was determined using a confocal microscope.
For KSH2 to KSH10 (SEQ ID NOS:35 to 43 in the sequence listing), a test of translocation into CHO cells was performed in the same manner as Example 1-2, and confocal microscopic analysis was performed. Used for positive control were a PTD sequence derived from HIV TAT (SEQ ID NO:50 in the sequence listing) and the KSH1 peptide; used for negative control was a peptide sequence lacking intracellular transferability (SEQ ID NO:57 in the sequence listing).
In the confocal microscopic analysis, a background correction was performed using cells to which the negative control peptide (SEQ ID NO:57 in the sequence listing) had been added. Thereafter, the positive control PTD1 peptide (SEQ ID NO:50 in the sequence listing) was added, and fluorescence in the cells was examined.
Regarding novel PTD sequence, each peptide was analyzed in a series of 2-fold dilutions at three levels from 50 μM to 12.5 μM. […] The PTD candidate sequences identified here clearly retained the capability of intracellular translocation.

Jurkat cells = test: Confocal microscopic analysis of intracellular translocation of synthetic peptides in Jurkat cells
Protocol: as §1
In Jurkat cells as well, intracellular translocation experiments of synthetic peptides of modified PTD sequences were performed by confocal microscopic analysis.

CHO cells [2] = test: Test of translocation of fluorescence-labeled peptides into CHO cells (FACS and confocal microscopic analysis); details: FACS
CHO cells [3] = test: as above; details: for intracellular translocation compared with KSH1 (in words): 12.5 μM and 6.5 μM
Protocol: Each peptide solution, adjusted to 1 mM, was diluted with a medium to three levels, 100 μM, 50 μM, and 25 μM, and added to cells. Three kinds of cells were used: CHO cells, HeLa cells, and Jurkat cells. After each peptide solution was added, the cells were incubated for 1 hour. After the cells were washed with PBS three times, 100 μL of 0.25% trypsin-1 mM EDTA solution was added, and trypsinization was performed at room temperature for 5 minutes. After 400 μL of PBS (10% FCS) was added to stop the trypsinization, the cells were washed with 1 mL of HBSS three times. After the washing, the cells were suspended in 500 μL of PBS (10% FCS) and subjected to flowcytometry (hereinafter, FACS) analysis using FACS Calibur (Becton Dickinson).
Each peptide was synthesized, fluorescently labeled, purified and dissolved in the same manner as Example 1-2, a test of translocation into CHO cells was performed, and an evaluation was performed by confocal microscopic analysis and FACS. FACS analysis was performed in the same manner as Example 1-3. For the KSH1 peptide and modified PTD sequences, i.e., KSH1-1 to KSH1-9 peptides (SEQ ID NOS:1 to 9 in the sequence listing), fluorescence intensities determined by FACS analysis are shown in FIG. 6. The peptide addition concentrations were 50 μM, 25 μM, 12.5 μM and 6.5 μM.
To determine which amino acids are important to the intracellular translocation, comprehensive alanine substitution was performed on the basis of KSH1-1 to design KSH1-11 (SEQ ID NO:11 in the sequence listing) to KSH1-23 (SEQ ID NO:22 in the sequence listing) and KSH1-35 (SEQ ID NO:32 in the sequence listing) (FIG. 7). Each peptide was synthesized, fluorescently labeled, purified and dissolved in the same manner as Example 1-2, a test of translocation into CHO cells was performed, and an evaluation was performed by confocal microscopic analysis and FACS. FACS analysis was performed in the same manner as Example 1-3. For KSH1 and modified PTD sequences, i.e., KSH11-11 to 23 and KSH1-35, fluorescence intensities determined by FACS analysis are shown in FIG. 8. The peptide addition concentrations were 50 μM, 25 μM, 12.5 μM and 6.5 μM.
(§2) Each peptide was synthesized, fluorescently labeled, purified and dissolved in the same manner as Example 1-2, a test of translocation into CHO cells was performed, and an evaluation was performed by confocal microscopic analysis and FACS analysis. FACS analysis was performed in the same manner as Example 1-3. For KSH1 and modified PTD sequences, i.e., KSH11-24 to 1-26 and KSH1-28 to 1-30, fluorescence intensities determined by FACS analysis are shown in FIG. 10. The peptide addition concentrations were 50 μM, 25 μM, 12.5 μM and 6.5 μM.
as §2, with “KSH1-27, KSH1-33, KSH1-34” for “KSH11-24 to 1-26”, “KSH1-36,” for “KSH1-28 to 1-30,”, “12.” for “10.”
Each peptide was synthesized, fluorescently labeled, purified and dissolved in the same manner as Example 1-2, and an intracellular translocation test in CHO cells was performed by FACS analysis. Used for positive control were a PTD sequence derived from HIV TAT ([…] in the sequence listing) and the KSH1 peptide; used for negative control was a peptide sequence lacking intracellular transferability (SEQ ID NO:57 in the sequence listing).

HeLa cells = test: Confocal microscopic analysis of intracellular translocation of synthetic peptides in HeLa cells
Protocol: as §1
In HeLa cells as with CHO cells, intracellular translocation experiments of synthetic peptides of modified PTD sequences were performed by confocal microscopic analysis.

[4] = tested on: CHO cells, HeLa cells, and Jurkat cells; test: Confocal microscopic analysis of intracellular translocation of fluorescence-labeled peptides; details: fluorescence-labeled peptide, confocal microscope
Text: With the PTD derived from HIV TAT protein shown by SEQ ID NO:50 in the sequence listing as the positive control (in FIG. 1 to FIG. 3, denoted by “Positive” or “TAT”), and a mutant of the TAT-derived PTD shown by SEQ ID NO:51 in the sequence listing, reported by Ulo Langel et al. (Cell-Penetrating Peptides: Processes and Applications, Series: Pharmacology and Toxicology: Basic and Clinical Aspects Volume:3, 2002), as the negative control (in FIG. 1, denoted by “Negative”), the peptides of the 11 sequences selected in Example 1-1 were evaluated.
The peptides of the 11 sequences selected in Example 1-1 were synthesized by the solid phase method, and fluorescently labeled by coupling 5,6-Carboxyfluorescein to the N-terminus of each peptide. Furthermore, the peptides were purified by HPLC to obtain a purity of 70% or more. Subsequently, each fluorescently labeled peptide was dissolved in 10% Dimethyl Sulfoxide (DMSO) to obtain 1 mM (hereinafter referred to as peptide solution).
as §1
Of the novel PTD sequences found in Example 5, the KSH2 peptide is highly capable of translocating eGFP into cells; an attempt was made to modify the KSH2 peptide. The KSH2-1 to KSH2-4 peptides (SEQ ID NOS:44 to 47 in the sequence listing) were synthesized, fluorescently labeled, purified and dissolved in the same manner as Example 1-2, a test of translocation into CHO cells was performed, and confocal microscopic analysis was performed.
First, two cases were examined: two cysteines were substituted with alanine (KSH2-1) or with tryptophan (KSH2-2). FITC-labeled peptides were synthesized, and their intracellular translocation efficiencies were examined using CHO, HeLa, and Jurkat cells (FIG. 21, the peptide addition concentration was 50 μM, 25 μM or 12.5 μM).

KSH10: novel PTD sequence from the 7-time-concentrated library of Jurkat cells (KRPTMRFRYTWNPMK; Designed peptide to act as PTD(Protein Transduction Domain))
intracellular translocation profile compared with PTD1 (CHO cells [1]): better intracellular translocation profiles than PTD1

KSH4: novel PTD sequence from the 7-time-concentrated library of Jurkat cells (KNAWKHSSCHHRHQI; Designed peptide to act as PTD(Protein Transduction Domain))
intracellular translocation profile compared with PTD1 (CHO cells [1]): better intracellular translocation profiles than PTD1

KSH3: novel PTD sequence from the 7-time-concentrated library of Jurkat cells (IPSRWKDQFWKRWHY; Designed peptide to act as PTD(Protein Transduction Domain))
intracellular translocation profile compared with PTD1 (CHO cells [1]): better intracellular translocation profiles than PTD1

KSH1-1: KSH1 with the lysine of the lysine/arginine cluster substituted with arginine (RLWMRWYSPTTRRYG; Designed peptide to act as PTD(Protein Transduction Domain))
intracellular translocation in Jurkat cells as compared to that of SEQ ID NO:37 (Jurkat cells): better intracellular translocation
intracellular translocation compared with KSH1 (CHO cells [2]; 6.25 μM): about 2 times
intracellular translocation compared with KSH1 (in words) (CHO cells [3]; 50 μM, 25 μM): clearly accentuated intracellular translocation
intracellular translocation compared with KSH1 (CHO cells [3]; FACS, 12.5 μM): about 8 times
intracellular translocation compared with KSH1 (CHO cells [3]; FACS, 25 μM): about 2 times
decrease of translocation efficiency compared with KSH1 (CHO cells [3]; FACS, 50 μM): about 20%
intracellular translocation in HeLa cells (modified peptides with better translocation) (HeLa cells; confocal microscopic analysis): better intracellular translocation

KSH7: novel PTD sequence from the 7-time-concentrated library of Jurkat cells (QQHLLIAINGYPRYN; Designed peptide to act as PTD(Protein Transduction Domain))
intracellular translocation profile compared with PTD1 (CHO cells [1]): better intracellular translocation profiles than PTD1

KSH2: novel PTD sequence from the 7-time-concentrated library of Jurkat cells (WKCRRQCFRVLHHWN; Designed peptide to act as PTD(Protein Transduction Domain))
intracellular translocation profile compared with PTD1 (CHO cells [1]): better intracellular translocation profiles than PTD1
localization of the peptide in HeLa cells (HeLa cells; Example 5-2): localized as fringing the surface of the cell membrane

KSH6: novel PTD sequence from the 7-time-concentrated library of Jurkat cells (LITKQYRYPSRRRFN; Designed peptide to act as PTD(Protein Transduction Domain))
intracellular translocation profile compared with PTD1 (CHO cells [1]): better intracellular translocation profiles than PTD1

KSH1: novel PTD candidate sequence of 15 amino acids selected from the random peptide library (KLWMRWYSPTTRRYG; Designed peptide to act as PTD(Protein Transduction Domain))
translocation into CHO cells (CHO cells [1]; slide chamber, 25 μM): translocated into all CHO cells
localization of the intracellularly transported peptide [4]: detected both in the nucleus and in cytoplasm
fluorescence from the peptide in the cells ([4]; incubated 1 hour): fluorescence from the KSH1 peptide was observed
fluorescence intensity compared with the positive control (PTD derived from HIV TAT, SEQ ID NO:50) ([4]; incubated 1 hour): higher than the fluorescence intensity of the positive control
intracellular transferability among the peptides of the 11 selected sequences ([4]; incubated 1 hour): highest intracellular transferability

KSH1-7: KSH1 with threonine substituted with tryptophan to form a tryptophan cluster (KLWMRWYSPWTRRYG; Designed peptide to act as PTD(Protein Transduction Domain))
intracellular translocation in Jurkat cells as compared to that of SEQ ID NO:37 (Jurkat cells): better intracellular translocation
intracellular translocation compared with KSH1 (CHO cells [2]; between 25 μM and 6.15 μM): not less than 3 times
intracellular translocation compared with KSH1 (in words) (CHO cells [3]; 50 μM, 25 μM): accentuated remarkably; also recorded: clearly accentuated intracellular translocation
intracellular translocation compared with KSH1 (CHO cells [3]; FACS, 12.5 μM): not less than 10 times
intracellular translocation in HeLa cells compared with CHO cells (HeLa cells; confocal microscopic analysis): lower
